Calls of active or inactive are those of the source.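 Rule for the calls: active = compounds giving half or more protection of infected cells from virus-caused growth loss, again on retest; inactive = the rest.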 Where a SMILES comes first, the peptide text is derived from it.
Test system: CEM cells HIV-1 protection, formazan growth assay
Assay: NCI AIDS Antiviral Assay
Details: for IC50: measured here: growth of uninfected CEM cells
Outline: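 Human CEM cells, uninfected and HIV-1-infected, received five drug concentrations, and growth was read by soluble formazan assay. Compounds giving at least 50% protection were retested; reproducible 100% protection defined confirmed active.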

SMILES: CON(C)C(=O)C(Cc1ccccc1)NC(=O)OC(C)(C)C (stereo not drawn)
- EC50: > 813 µM
- IC50: 155 µM

SMILES: CN1C(OCc2ccccc2)c2c(ccc3c2OCO3)C2C=Cc3cc4c(cc3C21)OCO4 (stereo not drawn)
- EC50: > 11.7 µM
- IC50: 0.676 µM

SMILES: N#CCCN(C(=O)Nc1ccccc1)[C@H]1CCCC[C@@H]1N(C(=O)Nc1ccccc1)c1ccccc1
- EC50: > 200 µM
- IC50: 33.1 µM

SMILES: Cc1ccc(S(=O)(=O)/C(C#N)=C/NC(=S)Nc2cc(Cl)ccc2Cl)cc1
- outcome: inactive

SMILES: COc1ccc(NC(=O)C(=O)C(C(=O)c2ccccc2)C2OC(=O)c3ccccc32)c([N+](=O)[O-])c1 (stereo not drawn)
- EC50: > 135 µM
- IC50: > 135 µM

SMILES: O=C(O)c1nc2ccc(Cl)cc2[nH]c1=O
- outcome: inactive

SMILES: COC(=N)CCCl
- EC50: > 200 µM
- IC50: > 200 µM

SMILES: NC1=NN(O)C2=CC([N+](=O)[O-])C=CC2=N1 (stereo not drawn)
- EC50: > 25.1 µM
- IC50: 20.4 µM

SMILES: Cc1cc(C)nc(NS(=O)(=O)c2ccc(Nc3c4ccccc4nc4c(C(=O)N5CCN(CCOS(C)(=O)=O)CC5)ccc(Cl)c34)cc2)n1
- EC50: > 30.9 µM
- IC50: > 30.9 µM

SMILES: ClC(Cl)=C(Cl)C1(Cl)CC1COCc1ccccc1 (stereo not drawn)
- EC50: > 30.9 µM
- IC50: 24.5 µM

SMILES: CC(=O)N1C/C(=C\c2ccccc2)C(=O)/C(=C/c2ccccc2)C1
- outcome: inactive

SMILES: O=C(Nc1ccc(C2=NCCN2)cc1)Nc1cccc(C(=O)Nc2ccc(C3=NCCN3)cc2)c1
- EC50: 12.9 µM
- IC50: 74.1 µM

SMILES: COC(=O)CCC(=O)c1ccc2c(c1)CC1(C2)Cc2ccc(C(=O)CCC(=O)OC)cc2C1
- EC50: > 200 µM
- IC50: 42.7 µM

SMILES: Cc1cc(O)c2c(c1)C(=O)C=CC2=O
- outcome: inactive

SMILES: CO/N=C\c1ccc2c(c1)Sc1ccccc1O2
- EC50: > 200 µM
- IC50: > 200 µM

SMILES: COc1cc(CC(C(=O)OC(C)(C)C)C(=O)OC(C)(C)C)c(NC(C)=O)c(OC)c1OC
- EC50: > 200 µM
- IC50: > 200 µM

SMILES: CSC1=NC(C(N)=O)C(N)N1C (stereo not drawn)
- EC50: > 200 µM
- IC50: > 200 µM

SMILES: Cn1c(CCC2(C)Cc3ccccc3C(=O)O2)cc2ccccc2c1=O (stereo not drawn)
- EC50: > 200 µM
- IC50: 36.3 µM

SMILES: Oc1ccc2ccccc2c1CNCc1c(O)ccc2ccccc12
- EC50: > 21.9 µM
- IC50: > 21.9 µM

SMILES: CCCCCCCCCCCCCCCC(=O)OC(CC(=O)O)C[N+](C)(C)C (stereo not drawn)
- outcome: inactive

SMILES: CN1OC(C#N)(C#N)C(C#N)(C#N)C1c1ccccc1 (stereo not drawn)
- EC50: > 200 µM
- IC50: > 200 µM

SMILES: Cc1oc2cc(O)ccc2c(=O)c1-c1ccccc1
- EC50: > 200 µM
- IC50: 30.2 µM

SMILES: O=C1/C(=N\O)c2ccccc2S1(=O)=O
- outcome: inactive

SMILES: Cn1c2c(c3ccccc31)CCN1C(=O)CN(C(=O)C3CCCCC3)CC21 (stereo not drawn)
- EC50: > 200 µM
- IC50: 66.1 µM

SMILES: COc1cc(Nc2cnc3ccc(C(F)(F)F)cc3n2)cc(OC)c1OC
- EC50: > 35.5 µM
- IC50: 6.92 µM

SMILES: O=c1[nH]c(=O)n(CCOc2ccc(Cl)cc2)cc1Nc1ccccc1
- EC50: > 200 µM
- IC50: 135 µM

SMILES: COC1=C(C)C(=O)c2nccc(C)c2C1=O
- outcome: inactive

SMILES: CNC(=O)OC(COC)CN1CCN(c2ccccc2C)CC1 (stereo not drawn)
- EC50: > 200 µM
- IC50: > 200 µM

SMILES: O=c1[nH]c2ccc([As](=O)(O)O)cc2[nH]1
- EC50: > 200 µM
- IC50: > 200 µM

SMILES: Cc1cccc2c(O)cc(=O)oc12
- outcome: inactive

SMILES: O=C(NC1CCN(Cc2ccccc2)CC1)c1ccc(I)cc1
- EC50: > 200 µM
- IC50: 15.8 µM

SMILES: COc1cc(/C=C/c2cc(O)cc(C3OC(CO)C(O)C(O)C3O)c2)ccc1O (stereo not drawn)
- outcome: inactive

SMILES: CC(=O)N/C(=C\c1cccc([N+](=O)[O-])c1)c1nc2c3c(ccc2[nH]1)C(=O)c1ccccc1C3=O
- outcome: inactive

SMILES: CC(C)Cn1cnc2c(NCC(C)O)nc3ccccc3c21 (stereo not drawn)
- EC50: > 200 µM
- IC50: 87.1 µM

SMILES: CCOC(=O)c1ccc(Nc2nc3ccc(C(F)(F)F)cc3nc2C(=O)OCC)cc1
- outcome: inactive

SMILES: COc1ccc(CCNC(=O)Cc2ccccc2CCO)cc1OC
- EC50: > 200 µM
- IC50: > 200 µM

SMILES: CCOC(=O)Cc1oc2c(C(C)=O)c(O)c(C)c(O)c2c1C
- EC50: > 200 µM
- IC50: 81.3 µM

SMILES: Nc1nc2nn(-c3ccc(C(=O)O)cc3)nc2c(=O)[nH]1
- EC50: > 200 µM
- IC50: > 200 µM

SMILES: NC(CSS(=O)(=O)O)=NCc1ccccc1
- EC50: > 200 µM
- IC50: > 200 µM

SMILES: C=C1C(=O)OC2/C=C(\C)CC(O)/C=C(/CO)CC(OC(=O)/C(C)=C/C)C12 (stereo not drawn)
- EC50: > 100 µM
- IC50: 53.7 µM

SMILES: Cc1ccc(N(C)S(=O)(=O)c2ccccc2)cc1
- EC50: > 145 µM
- IC50: 67.6 µM

SMILES: O=C1CSc2ncccc2N1c1ccc([N+](=O)[O-])cn1
- EC50: > 200 µM
- IC50: > 200 µM

SMILES: CC(C)CC(=O)[O-].CC(C)CC(=O)[O-].N.N.N.N.[Co+3].[O-][Cl+3]([O-])([O-])O.[O-][Cl+3]([O-])([O-])[O-]
- outcome: inactive

SMILES: CC(NC(=O)C(C)NC(=O)C(CC(N)=O)NC(=O)CN)C(=O)NC(CO)C(=O)NC(C)C(=O)NC(CCCN=C(N)N)C(N)=O (stereo not drawn) (H-GNAASAR-NH2; configuration not given here)
- outcome: inactive

SMILES: Cc1cc2occ(S(=O)(=O)NC(=O)Nc3ccc(Cl)cc3)c(=O)c2c(=O)o1
- EC50: > 200 µM
- IC50: 151 µM

SMILES: Nc1nc(=O)[nH]c(N)c1N=O
- EC50: > 200 µM
- IC50: > 200 µM

SMILES: CCOC(=O)c1ccc(N2CCN(c3c(C)nc(N)nc3N)CC2)cc1
- EC50: > 100 µM
- IC50: 0.0316 µM

SMILES: COC(=O)Cn1c(=O)oc2nc(-c3ccccc3)cc(C(F)(F)F)c21
- EC50: > 200 µM
- IC50: 129 µM

SMILES: CCn1c2ccccc2c2c(-c3ccccc3)cc3c(c21)C(=O)N(c1ccccc1)C3=O
- EC50: > 6.61 µM
- IC50: > 6.61 µM

SMILES: CCCCCCCCCCCCOP(=O)(O)OP(=O)(O)OCC1OC(n2cc(C)c(=O)[nH]c2=O)CC1O (stereo not drawn)
- EC50: > 200 µM
- IC50: 102 µM

SMILES: CC(=O)O/N=C/c1cc2c(cc1Br)OCO2
- EC50: > 18.2 µM
- IC50: > 18.2 µM

SMILES: C[C@@H]1CCC(=O)C(C(=O)CC2CC(=O)NC2=O)C1 (stereo partly drawn)
- EC50: > 200 µM
- IC50: > 200 µM

SMILES: COc1ccc(C2OC2C(=O)C23CC4CC(CC(C4)C2)C3)cc1 (stereo not drawn)
- EC50: > 200 µM
- IC50: 52.5 µM

SMILES: CCCCCCCCCCCCCCCCCCOC(COP(=O)(O)OCC1OC(n2cc(C)c(=O)[nH]c2=O)CC1N=[N+]=[N-])COP(=O)(O)OC1CC(n2cc(C)c(=O)[nH]c2=O)OC1CO (stereo not drawn)
- EC50: 0.17 µM
- IC50: 30.9 µM

SMILES: COc1cc(Nc2nc3ccccc3nc2-c2cccs2)cc(OC)c1OC
- EC50: > 25.1 µM
- IC50: 21.9 µM

SMILES: CS(=O)(=O)Nc1c(-c2ccccc2)oc2ccccc2c1=O
- EC50: > 200 µM
- IC50: > 200 µM

SMILES: Cn1c(=O)c2c(nc3sc4nc5ccccc5nc4n32)n(C)c1=O
- EC50: > 200 µM
- IC50: > 200 µM

SMILES: CC1CC[C@@]23CCC4(C)[C@@](C=CC5[C@@]6(C)CCC(=O)C(C)(C)C6CC[C@]54C)(OC2=O)[C@@H]3[C@H]1C (stereo partly drawn)
- outcome: inactive

SMILES: Cc1ccc(N=C2SC(=S)N(CCC[N+](C)(C)C)C2=Nc2ccc(C)cc2)cc1
- EC50: > 200 µM
- IC50: 14.1 µM

SMILES: O=C(O)c1ccc2c(c1C(=O)O)C(=O)c1ccccc1C2=O
- EC50: > 200 µM
- IC50: > 200 µM

SMILES: COC(=O)C1=C(C(=O)OC)C2(OC(C)=O)c3ccccc3-c3ccccc3C12 (stereo not drawn)
- EC50: > 2.51 µM
- IC50: 1.35 µM

SMILES: CCc1cccc(C)c1NC(=S)NC(=O)c1ccccc1C(=O)NC(=S)Nc1c(C)cccc1CC
- EC50: > 69.2 µM
- IC50: > 69.2 µM

SMILES: c1ccc2c(c1)CCc1[nH]c3c(c1-2)-c1ccccc1CC3
- EC50: > 200 µM
- IC50: 30.9 µM

SMILES: ON1CCc2c([nH]c3ccccc23)C1c1ccc(Cl)cc1 (stereo not drawn)
- outcome: inactive
